Assay results from ChEMBL document CHEMBL4321815, “Discovery of an Extremely Potent Thiazine-Based β-Secretase Inhibitor with Reduced Cardiovascular and Liver Toxicity at a Low Projected Human Dose” (J Med Chem, 2019).

Experiments:
[1] = AUC in mouse at 2.5 mg/kg, po; assay type: ADME, organism-based; details: in vivo
[2] = Cmax in Cynomolgus monkey at 2.5 mg/kg, po by LC/MS/MS analysis; assay type: ADME, organism-based, Macaca fascicularis; set-up: dose 2.5 mg/kg, route oral; details: in vivo
[3] = Clearance in mouse at 0.5 mg/kg, iv; assay type: ADME, organism-based; details: in vivo
[4] = Unbound CSF to plasma concentration ratio in Beagle dog at 0.08 to […], po measured up to 49 hrs; assay type: ADME, organism-based, Canis lupus familiaris; details: CSF and plasma
[5] = Oral bioavailability in Cynomolgus monkey at 2.5 mg/kg by LC/MS/MS analysis; assay type: ADME, organism-based, Macaca fascicularis; details: in vivo
[6] = Free drug level in Crl:CD1(ICR) mouse brain at 1 mg/kg, po after 2 to 6 hrs; assay type: ADME, organism-based; details: in vivo
[7] = Half life in Cynomolgus monkey at 0.5 mg/kg, iv by LC/MS/MS analysis; assay type: ADME, organism-based, Macaca fascicularis; details: in vivo
[8] = Volume of distribution at steady state in mouse at 0.5 mg/kg, iv; assay type: ADME, organism-based; details: in vivo, read-out: Vdss
[9] = AUC in Cynomolgus monkey at 2.5 mg/kg, po by LC/MS/MS analysis; assay type: ADME, organism-based, Macaca fascicularis; details: in vivo
[10] = Unbound brain-to-plasma concentration ratio in Sprague-Dawley rat at 0.5 mg/kg, iv after 30 mins by LC-MS/MS analysis; assay type: ADME, organism-based; details: brain and plasma, read-out: K(p,uu,brain)
Canis familiaris [11] = assay: In vivo inhibition of BACE1 in po dosed Beagle dog assessed as plasma level causing 50% reduction in amyloidbeta42 level in CSF administered as single dose measured after 4 to 49 hrs; assay type: functional, organism-based; details: Canis lupus familiaris
[12] = Cmax in Sprague-Dawley rat at 1 mg/kg, po by LC/MS/MS analysis; assay type: ADME, organism-based; set-up: dose 1 mg/kg, route oral; details: in vivo
[13] = Toxicity in anesthetized guinea-pig at 0.19 to 6 mg/kg, iv administered for 5 mins; assay type: organism-based, Cavia porcellus; details: in vivo
[14] = Drug level in Crl:CD1(ICR) mouse brain at 3 mg/kg, po at 6 hrs; assay type: ADME, organism-based; details: read-out: Drug uptake
[15] = Metabolic stability in dog hepatocytes at 2 uM incubated for 2 hr; assay type: ADME, cell-based, Canis lupus familiaris, Hepatocyte; details: read-out: Stability
[16] = Free drug level in Crl:CD1(ICR) mouse brain at 3 mg/kg, po at 6 hrs; assay type: ADME, organism-based; details: in vivo
[17] = AUC in dog at 2.5 mg/kg, po; assay type: ADME, organism-based, Canis lupus familiaris; details: in vivo
[18] = Cmax in Sprague-Dawley rat at 2.5 mg/kg, po by LC/MS/MS analysis; assay type: ADME, organism-based; set-up: dose 2.5 mg/kg, route oral; details: in vivo
Mus musculus [19] = assay: In vivo inhibition of BACE1 in Crl:CD1(ICR) mouse assessed as reduction in amyloidbeta level in brain at 3 mg/kg, po after 2 to 6 hrs by ELISA relative to control; assay type: functional
[20] = Drug level in Crl:CD1(ICR) mouse brain at 1 mg/kg, po after 2 to 6 hrs; assay type: ADME, organism-based; details: in vivo, read-out: Drug uptake
[21] = Volume of distribution at steady state in Sprague-Dawley rat at 0.5 mg/kg, iv by LC/MS/MS analysis; assay type: ADME, organism-based; details: in vivo, read-out: Vdss
Canis familiaris [22] = assay: In vivo inhibition of BACE1 in Beagle dog assessed as reduction in amyloidbeta42 level in CSF at 0.08 mg/kg, po administered as single dose measured after 4 to 49 hrs relative to control; assay type: functional; details: Canis lupus familiaris
[23] = Volume of distribution at steady state in Cynomolgus monkey at 0.5 mg/kg, iv by LC/MS/MS analysis; assay type: ADME, organism-based, Macaca fascicularis; details: in vivo, read-out: Vdss
Canis familiaris [24] = assay: In vivo inhibition of BACE1 in po dosed Beagle dog assessed as reduction in amyloidbeta42 level in CSF measured after 4 to 49 hrs; assay type: functional, organism-based; details: Canis lupus familiaris
[25] = Metabolic stability in human hepatocytes at 2 uM incubated for 2 hr; assay type: ADME, cell-based, Hepatocyte; details: read-out: Stability
[26] = Fraction unbound in dog plasma after 24 hrs by equilibrium dialysis based LC-MS/MS analysis; assay type: ADME, cell-free, Canis lupus familiaris
[27] = Volume of distribution at steady state in dog at 0.5 mg/kg, iv; assay type: ADME, organism-based, Canis lupus familiaris; details: in vivo, read-out: Vdss
[28] = Oral bioavailability in mouse at 2.5 mg/kg; assay type: ADME, organism-based; details: in vivo
[29] = Tmax in Cynomolgus monkey at 2.5 mg/kg, po by LC/MS/MS analysis; assay type: ADME, organism-based, Macaca fascicularis; details: in vivo
[30] = Fraction unbound in mouse plasma after 24 hrs by equilibrium dialysis based LC-MS/MS analysis; assay type: ADME, cell-free
Cathepsin D = Cathepsin D (Homo sapiens, UniProt P07339); assay: Inhibition of Cathepsin D (unknown origin)
Mus musculus [31] = assay: In vivo inhibition of BACE1 in Crl:CD1(ICR) mouse assessed as reduction in amyloidbeta level in brain at 1 mg/kg, po after 2 to 6 hrs by ELISA relative to control; assay type: functional

Chain of Cathepsin D (P07339 65-162 limits assumed): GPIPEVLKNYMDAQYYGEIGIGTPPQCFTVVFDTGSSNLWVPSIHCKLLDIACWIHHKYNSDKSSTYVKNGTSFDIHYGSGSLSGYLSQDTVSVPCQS
Chain of Cathepsin D (P07339 169-412 limits assumed): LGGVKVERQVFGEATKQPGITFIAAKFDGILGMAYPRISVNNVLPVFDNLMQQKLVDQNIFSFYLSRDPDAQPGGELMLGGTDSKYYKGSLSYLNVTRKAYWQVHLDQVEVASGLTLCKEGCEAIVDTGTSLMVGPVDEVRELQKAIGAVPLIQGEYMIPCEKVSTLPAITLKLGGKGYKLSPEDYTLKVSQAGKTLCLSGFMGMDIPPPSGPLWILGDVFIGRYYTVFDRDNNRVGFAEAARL

C[C@H]1SC(N)=N[C@](C)(c2cc(NC(=O)c3cnc(OCF)cn3)ccc2F)[C@H]1F
AUC [1]: 0.596 µg·h/mL
Cmax [2]: 0.054 µg/mL
clearance [3]: 2.46 L/h/kg
Kp uu at 49 h [4]: 0.77
bioavailability [5]: 24%
Drug uptake(free) [6]: 3 nM
half-life [7]: 4.9 h
Vd [8]: 7.5 L/kg
AUC [9]: 0.429 µg·h/mL
Kp uu at 0.5 h [10]: 0.95
EC50 (Canis familiaris [11]): 0.021 µM
Cmax [12]: 0.0384 µg/mL
NOAEL [13]: > 6.9 µg/mL
fNOAEL [13]: 2.4 µM
concentration at 6 h [14]: 0.611 µM
remaining at 2 h, 2 µM [15]: 90%
Drug uptake(free) [16]: 73 nM
AUC [17]: 10.4 µg·h/mL
Cmax [18]: 0.148 µg/mL
inhibition in vivo at 3 mg/kg (Mus musculus [19]): 90%
concentration [20]: 0.087 µM
Vd [21]: 5 L/kg
inhibition in vivo at 0.08 mg/kg (Canis familiaris [22]): 50%
Vd [23]: 7 L/kg
inhibition (Canis familiaris [24]): Dose-dependent effect
remaining at 2 h, 2 µM [25]: 89%
fraction unbound at 24 h [26]: 0.078
Vd [27]: 2.8 L/kg
bioavailability [28]: 58%
Tmax [29]: 3 h
fraction unbound at 24 h [30]: 0.15
IC50 (Cathepsin D): ≥ 100 µM
inhibition in vivo at 1 mg/kg (Mus musculus [31]): 55%
